According to the supplement of paper PMC10307832:

Assays:
Test in all cases: relative viability (nuclei count vs DMSO), 5 days (fraction); higher = more cells survive
A-427 = tested on: A-427
Procedure, shortened: (§1)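 Medians of duplicate plates are given as relative viability. That measure is the nuclei count in treated wells divided by the count in vehicle wells. Counts were taken on 4× images of lung cancer cell lines in 1536-well plates, 5 days after pin-tool dosing the day after seeding with one drug alone or a fixed anchor-drug dose plus five library-drug doses (not always all listed) in √10 steps.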

NCI-H1915 = tested on: NCI-H1915
Procedure, shortened: as §1

HARA = tested on: HARA
Procedure, shortened: as §1

NCI-H2405 = tested on: NCI-H2405
Procedure, shortened: as §1

NCI-H1993 = tested on: NCI-H1993
Procedure, shortened: as §1

RERF-LC-KJ = tested on: RERF-LC-KJ
Procedure, shortened: as §1

NCI-H838 = tested on: NCI-H838
Procedure, shortened: as §1

LOU-NH91 = tested on: LOU-NH91
Procedure, shortened: as §1

LU99A = tested on: LU99A
Procedure, shortened: as §1

NCI-H1975 = tested on: NCI-H1975
Procedure, shortened: as §1

COR-L23 = tested on: COR-L23
Procedure, shortened: as §1

SW 1573 = tested on: SW 1573
Procedure, shortened: as §1

NCI-H1666 = tested on: NCI-H1666
Procedure, shortened: as §1

NCI-H1650 = tested on: NCI-H1650
Procedure, shortened: as §1

BEN = tested on: BEN
Procedure, shortened: as §1

NCI-H2228 = tested on: NCI-H2228
Procedure, shortened: as §1

NCI-H1793 = tested on: NCI-H1793
Procedure, shortened: as §1

EKVX = tested on: EKVX
Procedure, shortened: as §1

NCI-H2023 = tested on: NCI-H2023
Procedure, shortened: as §1

NCI-H650 = tested on: NCI-H650
Procedure, shortened: as §1

NCI-H460 = tested on: NCI-H460
Procedure, shortened: as §1

NCI-H1395 = tested on: NCI-H1395
Procedure, shortened: as §1

With `COCC1(CO)C(=O)C2CCN1CC2` (stereo not drawn) [PRIMA-1MET] + Cc1cc(Nc2cc(N3CCN(C)CC3)nc(Sc3ccc(NC(=O)C4CC4)cc3)n2)n[nH]1 [Tozasertib] (partner 0.1 µM) the relative viability (A-427; first compound 0.2 µM) was 0.163, the relative viability (A-427; first compound 0.6325 µM) was 0.201 and the relative viability (A-427; first compound 2 µM) was 0.203. For the same compound, the relative viability (A-427; first compound 6.325 µM) was 0.186, the relative viability (A-427; first compound 20 µM) was 0.175 and the relative viability (NCI-H1915; first compound 0.2 µM) was 0.444. It also gave a relative viability (NCI-H1915; first compound 0.6325 µM) of 0.368, a relative viability (NCI-H1915; first compound 6.325 µM) of 0.389 and a relative viability (NCI-H1915; first compound 20 µM) of 0.364. For the same compound, the relative viability (HARA; first compound 0.2 µM) was 0.119, the relative viability (HARA; first compound 0.6325 µM) was 0.0972 and the relative viability (HARA; first compound 6.325 µM) was 0.112. For the same compound, the relative viability (HARA; first compound 20 µM) was 0.118, the relative viability (NCI-H2405; first compound 0.2 µM) was 0.735 and the relative viability (NCI-H2405; first compound 0.6325 µM) was 0.812. The relative viability (NCI-H2405; first compound 6.325 µM) was 0.667, the relative viability (NCI-H2405; first compound 20 µM) was 0.329 and the relative viability (NCI-H1993; first compound 0.2 µM) was 0.674. For the same compound, the relative viability (NCI-H1993; first compound 0.6325 µM) was 0.541, the relative viability (NCI-H1993; first compound 2 µM) was 0.566 and the relative viability (NCI-H1993; first compound 6.325 µM) was 0.569. For the same compound, the relative viability (NCI-H1993; first compound 20 µM) was 0.662, the relative viability (RERF-LC-KJ; first compound 0.2 µM) was 0.53 and the relative viability (RERF-LC-KJ; first compound 0.6325 µM) was 0.523. For the same compound, the relative viability (RERF-LC-KJ; first compound 2 µM) was 0.58, the relative viability (RERF-LC-KJ; first compound 6.325 µM) was 0.498 and the relative viability (RERF-LC-KJ; first compound 20 µM) was 0.431. The relative viability (NCI-H838; first compound 0.2 µM) was 0.291, the relative viability (NCI-H838; first compound 0.6325 µM) was 0.286 and the relative viability (NCI-H838; first compound 2 µM) was 0.245. It also gave a relative viability (NCI-H838; first compound 6.325 µM) of 0.293, a relative viability (NCI-H838; first compound 20 µM) of 0.194 and a relative viability (LOU-NH91; first compound 0.2 µM) of 0.618. For the same compound, the relative viability (LOU-NH91; first compound 0.6325 µM) was 0.673, the relative viability (LOU-NH91; first compound 2 µM) was 0.625 and the relative viability (LOU-NH91; first compound 6.325 µM) was 0.715. The relative viability (LOU-NH91; first compound 20 µM) was 0.427, the relative viability (LU99A; first compound 0.2 µM) was 0.282 and the relative viability (LU99A; first compound 0.6325 µM) was 0.268. For the same compound, the relative viability (LU99A; first compound 2 µM) was 0.277, the relative viability (LU99A; first compound 6.325 µM) was 0.284 and the relative viability (LU99A; first compound 20 µM) was 0.0311. For the same compound, the relative viability (NCI-H1975; first compound 0.2 µM) was 1.05, the relative viability (NCI-H1975; first compound 0.6325 µM) was 0.726 and the relative viability (NCI-H1975; first compound 2 µM) was 0.878. For the same compound, the relative viability (NCI-H1975; first compound 6.325 µM) was 0.738, the relative viability (NCI-H1975; first compound 20 µM) was 0.454 and the relative viability (COR-L23; first compound 0.2 µM) was 0.223. For the same compound, the relative viability (COR-L23; first compound 0.6325 µM) was 0.285, the relative viability (COR-L23; first compound 2 µM) was 0.212 and the relative viability (COR-L23; first compound 6.325 µM) was 0.195. For the same compound, the relative viability (COR-L23; first compound 20 µM) was 0.0198, the relative viability (SW 1573; first compound 0.2 µM) was 0.189 and the relative viability (SW 1573; first compound 0.6325 µM) was 0.0874. For the same compound, the relative viability (SW 1573; first compound 2 µM) was 0.191, the relative viability (SW 1573; first compound 6.325 µM) was 0.0585 and the relative viability (SW 1573; first compound 20 µM) was 0.0263. The relative viability (NCI-H1666; first compound 0.2 µM) was 0.592, the relative viability (NCI-H1666; first compound 0.6325 µM) was 0.601 and the relative viability (NCI-H1666; first compound 2 µM) was 0.66. For the same compound, the relative viability (NCI-H1666; first compound 6.325 µM) was 0.554, the relative viability (NCI-H1666; first compound 20 µM) was 0.388 and the relative viability (NCI-H1650; first compound 0.2 µM) was 0.516. The relative viability (NCI-H1650; first compound 0.6325 µM) was 0.377, the relative viability (NCI-H1650; first compound 2 µM) was 0.492 and the relative viability (NCI-H1650; first compound 6.325 µM) was 0.537. The relative viability (NCI-H1650; first compound 20 µM) was 0.0907, the relative viability (BEN; first compound 0.2 µM) was 0.504 and the relative viability (BEN; first compound 0.6325 µM) was 0.473. The relative viability (BEN; first compound 6.325 µM) was 0.501, the relative viability (BEN; first compound 20 µM) was 0.538 and the relative viability (NCI-H2228; first compound 0.2 µM) was 0.312. It also gave a relative viability (NCI-H2228; first compound 0.6325 µM) of 0.262, a relative viability (NCI-H2228; first compound 2 µM) of 0.322 and a relative viability (NCI-H2228; first compound 6.325 µM) of 0.203. The relative viability (NCI-H2228; first compound 20 µM) was 0.0992, the relative viability (NCI-H1793; first compound 0.2 µM) was 0.44 and the relative viability (NCI-H1793; first compound 0.6325 µM) was 0.316. For the same compound, the relative viability (NCI-H1793; first compound 6.325 µM) was 0.414, the relative viability (NCI-H1793; first compound 20 µM) was 0.237 and the relative viability (EKVX; first compound 0.2 µM) was 0.452. It also gave a relative viability (EKVX; first compound 0.6325 µM) of 0.357, a relative viability (EKVX; first compound 6.325 µM) of 0.397 and a relative viability (EKVX; first compound 20 µM) of 0.366. The relative viability (NCI-H2023; first compound 0.2 µM) was 0.461, the relative viability (NCI-H2023; first compound 0.6325 µM) was 0.327 and the relative viability (NCI-H2023; first compound 2 µM) was 0.389. The relative viability (NCI-H2023; first compound 6.325 µM) was 0.359, the relative viability (NCI-H2023; first compound 20 µM) was 0.35 and the relative viability (NCI-H650; first compound 0.2 µM) was 0.91. It also gave a relative viability (NCI-H650; first compound 2 µM) of 0.639, a relative viability (NCI-H650; first compound 6.325 µM) of 0.749 and a relative viability (NCI-H650; first compound 20 µM) of 0.306. For the same compound, the relative viability (NCI-H460; first compound 0.2 µM) was 0.443, the relative viability (NCI-H460; first compound 0.6325 µM) was 0.312 and the relative viability (NCI-H460; first compound 2 µM) was 0.311. It also gave a relative viability (NCI-H460; first compound 6.325 µM) of 0.5, a relative viability (NCI-H460; first compound 20 µM) of 0.0183 and a relative viability (NCI-H1395; first compound 0.2 µM) of 0.823. The relative viability (NCI-H1395; first compound 0.6325 µM) was 0.556, the relative viability (NCI-H1395; first compound 2 µM) was 0.768 and the relative viability (NCI-H1395; first compound 6.325 µM) was 0.885. For the same compound, the relative viability (NCI-H1395; first compound 20 µM) was 0.518.
